From PubChem BioAssay AID328 (DTP/NCI, 2004) come the findings set out here.

The test system of this assay is BDF1 mice, P388 leukemia ip, median survival T/C. Nature of the assay: NCI In Vivo Anticancer Drug Screen. Data for tumor model P388 Leukemia (intraperitoneal) in B6D2F1 (BDF1) mice. The following applies: endpoint: median survival time, higher = longer survival. In short, it runs like this:
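Antitumour effect was judged in vivo: survival in drug-treated mice, normalised to that of vehicle-dosed controls, gives the reported T/C.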

Where [1] appears, read: dose: 100.0 mg/kg/injection, schedule: Q01DX009 (ip), vehicle: Klucel (hydroxypropylcellulose) (HPC).
Where [2] appears, read: dose: 150.0 mg/kg/injection, schedule: Q01DX009 (ip), vehicle: Klucel (hydroxypropylcellulose) (HPC).
Where [3] appears, read: dose: 150.0 mg/kg/injection, schedule: Q01DX009 (ip), vehicle: saline.
Where [4] appears, read: dose: 100.0 mg/kg/injection, schedule: Q04DX003 (ip), vehicle: saline with Tween-80.
Setting [5] is: dose: 200.0 mg/kg/injection, schedule: Q04DX003 (ip), vehicle: saline with Tween-80.
Where [6] appears, read: dose: 400.0 mg/kg/injection, schedule: Q04DX003 (ip), vehicle: saline with Tween-80.
Setting [7] is: dose: 75.0 mg/kg/injection, schedule: Q01DX009 (ip), vehicle: Klucel (hydroxypropylcellulose) (HPC).
The mark [8] stands for this setting: dose: 100.0 mg/kg/injection, schedule: Q04DX003 (ip), vehicle: Klucel (hydroxypropylcellulose) (HPC).
The mark [9] stands for this setting: dose: 200.0 mg/kg/injection, schedule: Q04DX003 (ip), vehicle: Klucel (hydroxypropylcellulose) (HPC).
The mark [10] stands for this setting: dose: 50.0 mg/kg/injection, schedule: Q01DX009 (ip), vehicle: saline with Tween-80.
Setting [11] is: dose: 100.0 mg/kg/injection, schedule: Q01DX009 (ip), vehicle: saline with Tween-80.
Where [12] appears, read: dose: 200.0 mg/kg/injection, schedule: Q01DX009 (ip), vehicle: saline with Tween-80.
[13] abbreviates: dose: 25.0 mg/kg/injection, schedule: Q01DX009 (ip), vehicle: saline.
The mark [14] stands for this setting: dose: 50.0 mg/kg/injection, schedule: Q01DX009 (ip), vehicle: saline.
Where [15] appears, read: dose: 100.0 mg/kg/injection, schedule: Q01DX009 (ip), vehicle: saline.

Values joined by “and” are separate entries in the source; they are usually repeats but may differ in a detail not shown here. Identical values can stand only once. Inconclusive results and toxic doses are left out.

For `NC(N)=NC(N)=Nc1ccc([As](=O)(O)O)c(O)c1`, the T/C is 156 % of control (dose: 44.0 mg/kg/injection, schedule: Q01DX009 (ip), vehicle: Klucel (hydroxypropylcellulose) (HPC)); 156 % of control (dose: 66.0 mg/kg/injection, schedule: Q01DX009 (ip), vehicle: Klucel (hydroxypropylcellulose) (HPC)); 169 % of control under setting [1]; 169 % of control under setting [2]; 155 % of control under setting [3].
For `Cn1c2ccccc2c2c3c(ccc21)C(=O)C=CC3=O`, the T/C is, setting by setting: under setting [4], 113 % of control; under setting [5], 102 % of control; under setting [6], 121 % of control.
In the case of `CC(C)COC(=O)c1ccccc1O`, the T/C is 109 % of control under setting [7]; 111 % of control under setting [8]; 90 % of control under setting [2]; 92 % of control under setting [9]; 109 % of control (dose: 300.0 mg/kg/injection, schedule: Q01DX009 (ip), vehicle: Klucel (hydroxypropylcellulose) (HPC)).
As for `O=c1nc(Oc2ccccc2)nc2ccccn12`, the T/C under setting [10] is 105 % of control, the T/C under setting [11] was 97 % of control and the T/C under setting [12] was 102 % of control.
`OC1CC2c3ccccc3C1c1cccc[n+]12` (configuration not stated): the T/C is, setting by setting: (dose: 12.5 mg/kg/injection, schedule: Q01DX009 (ip), vehicle: Klucel (hydroxypropylcellulose) (HPC)) 87 % of control and 91 % of control; (dose: 25.0 mg/kg/injection, schedule: Q01DX009 (ip), vehicle: Klucel (hydroxypropylcellulose) (HPC)) 104 % of control; (dose: 50.0 mg/kg/injection, schedule: Q01DX009 (ip), vehicle: Klucel (hydroxypropylcellulose) (HPC)) 91 % of control and 100 % of control; (dose: 56.25 mg/kg/injection, schedule: Q04DX003 (ip), vehicle: Klucel (hydroxypropylcellulose) (HPC)) 100 % of control; under setting [7], 100 % of control; (dose: 112.5 mg/kg/injection, schedule: Q04DX003 (ip), vehicle: Klucel (hydroxypropylcellulose) (HPC)) 108 % of control.
On to `CN(CCOS(C)(=O)=O)CCOS(C)(=O)=O`, for which the T/C (dose: 0.01 mg/kg/injection, schedule: Q01DX009 (ip), vehicle: saline) is 172 % of control; the T/C (dose: 0.02 mg/kg/injection, schedule: Q01DX009 (ip), vehicle: saline) is 213 % of control; the T/C (dose: 0.07 mg/kg/injection, schedule: Q04DX003 (ip), vehicle: saline) is 122 % of control; the T/C (dose: 0.11 mg/kg/injection, schedule: Q04DX003 (ip), vehicle: saline) is 154 % of control; the T/C (dose: 0.36 mg/kg/injection, schedule: Q01DX009 (ip), vehicle: saline) was 104 % of control and 218 % of control; the T/C (dose: 0.56 mg/kg/injection, schedule: Q01DX009 (ip), vehicle: saline) is 231 % of control and 260 % of control and 90 % of control. Further, the T/C reads like this: (dose: 0.75 mg/kg/injection, schedule: Q04DX003 (ip), vehicle: saline) 213 % of control; (dose: 0.84 mg/kg/injection, schedule: Q01DX009 (ip), vehicle: saline) 231 % of control; (dose: 0.99 mg/kg/injection, schedule: Q04DX003 (ip), vehicle: saline) 225 % of control; (dose: 1.5 mg/kg/injection, schedule: Q04DX003 (ip), vehicle: saline) 240 % of control and 250 % of control; (dose: 2.25 mg/kg/injection, schedule: Q04DX003 (ip), vehicle: saline) 150 % of control; (dose: 2.3 micrograms/kg/injection, schedule: Q01DX009 (ip), vehicle: saline) 87 % of control. In addition, the T/C was 160 % of control (dose: 19.0 micrograms/kg/injection, schedule: Q01DX009 (ip), vehicle: saline); 158 % of control (dose: 44.0 micrograms/kg/injection, schedule: Q01DX009 (ip), vehicle: saline); 220 % of control (dose: 66.0 micrograms/kg/injection, schedule: Q01DX009 (ip), vehicle: saline).
In the case of `CC(C)(C1c2ccccc2C(=NO)c2ccccc21)[N+](=O)[O-]` (configuration not stated), the T/C runs as follows: under setting [11], 109 % of control; under setting [4], 91 % of control; under setting [12], 90 % of control; under setting [5], 100 % of control; (dose: 400.0 mg/kg/injection, schedule: Q01DX009 (ip), vehicle: saline with Tween-80) 100 % of control; under setting [6], 91 % of control.
Consider `CCOC(=O)Cc1csc(=NC(=O)c2ccccc2)n1N`, for which the T/C runs as follows: under setting [10], 108 % of control; under setting [11], 115 % of control; under setting [12], 101 % of control.
With `COC(=O)c1cc(=O)nc(N/N=C/c2ccc3c(c2)OCO3)s1`, the T/C reads like this: (dose: 50.0 mg/kg/injection, schedule: Q01DX005 (ip), vehicle: saline with Tween-80) 92 % of control; (dose: 200.0 mg/kg/injection, schedule: Q01DX005 (ip), vehicle: saline with Tween-80) 96 % of control.
Turning to `CCN(CCNc1ccc(CO)c2sc3ccccc3c(=O)c12)CC(C)(C)O`, the T/C was 102 % of control (dose: 50.0 mg/kg/injection, schedule: Q04DX003 (ip), vehicle: Klucel (hydroxypropylcellulose) (HPC)); 100 % of control under setting [8]; 106 % of control under setting [9].
As for `O=S(=O)(CCBr)CCBr`, the T/C under setting [10] was 100 % of control, the T/C under setting [11] was 104 % of control, the T/C under setting [4] is 100 % of control and the T/C under setting [5] was 100 % of control.
On to `ClCC(Cl)CN1CCCCC1` (configuration not stated), for which the T/C runs as follows: (dose: 12.5 mg/kg/injection, schedule: Q01DX009 (ip), vehicle: saline) 90 % of control; under setting [13], 86 % of control; under setting [14], 104 % of control.
Regarding `CCOC(=O)C(=O)CC1=CC=CC2=NC(=O)CCN12`, the T/C runs as follows: (dose: 66.0 mg/kg/injection, schedule: Q01DX001 (ip), vehicle: saline with Tween-80) 109 % of control; (dose: 100.0 mg/kg/injection, schedule: Q01DX001 (ip), vehicle: saline with Tween-80) 100 % of control; (dose: 150.0 mg/kg/injection, schedule: Q01DX001 (ip), vehicle: saline with Tween-80) 100 % of control; (dose: 200.0 mg/kg/injection, schedule: Q01DX001 (ip), vehicle: saline with Tween-80) 100 % of control.
Take `COc1c(Br)cc(Br)cc1Br`: the T/C under setting [8] is 108 % of control; the T/C under setting [9] was 100 % of control; the T/C (dose: 400.0 mg/kg/injection, schedule: Q04DX003 (ip), vehicle: Klucel (hydroxypropylcellulose) (HPC)) was 100 % of control.
Take `Nc1ccc(CCc2ccc(N)cc2[N+](=O)[O-])c([N+](=O)[O-])c1`: the T/C under setting [1] is 100 % of control; the T/C (dose: 200.0 mg/kg/injection, schedule: Q01DX009 (ip), vehicle: Klucel (hydroxypropylcellulose) (HPC)) is 100 % of control; the T/C (dose: 400.0 mg/kg/injection, schedule: Q01DX009 (ip), vehicle: Klucel (hydroxypropylcellulose) (HPC)) was 100 % of control.
As to `O=C(NC1CCCC2C(NC(=O)c3ccccc3)CCCC12)c1ccccc1` (configuration not stated), the T/C was 120 % of control (dose: 66.0 mg/kg/injection, schedule: Q01DX009 (ip), vehicle: saline); 104 % of control (dose: 100.0 mg/kg/injection, schedule: Q01DX001 (ip), vehicle: saline); 100 % of control and 109 % of control under setting [15]; 100 % of control and 109 % of control under setting [3]; 95 % of control (dose: 200.0 mg/kg/injection, schedule: Q01DX001 (ip), vehicle: saline); 115 % of control (dose: 200.0 mg/kg/injection, schedule: Q01DX009 (ip), vehicle: saline). For the same compound, the T/C (dose: 400.0 mg/kg/injection, schedule: Q01DX001 (ip), vehicle: saline) is 104 % of control and the T/C (dose: 400.0 mg/kg/injection, schedule: Q01DX009 (ip), vehicle: saline) was 100 % of control.
Consider `C=Cn1ccnc1C.C=Cn1ccnc1C.CC(=O)CC(C)=O.CC(=O)CC(C)=O.[Co]`, for which the T/C is, setting by setting: (dose: 12.5 mg/kg/injection, schedule: Q04DX003 (ip), vehicle: saline) 106 % of control; (dose: 25.0 mg/kg/injection, schedule: Q04DX003 (ip), vehicle: saline) 106 % of control; (dose: 50.0 mg/kg/injection, schedule: Q04DX003 (ip), vehicle: saline) 117 % of control.
Regarding `COc1ccc(NC(=O)Nc2c(Oc3ccc(Cl)cc3)ccc(Cl)c2S(=O)(=O)O)cc1Cl`, the T/C is, setting by setting: under setting [13], 109 % of control; under setting [14], 86 % of control; under setting [15], 104 % of control.
